Values after ≈ are worked out from the molar mass of the structure shown. Each block holds one molecule with its values, some of them ahead of it.
What was measured:
[1] = test system: Bacteroides fragilis ATCC 25285; experiment: Drug sensitivity of quality-control strain, micro broth dilution method (CLSI); assay type: cell-based; settings: ATCC25285
Procedure: Bacteroides fragilis ATCC 25285 was selected as a quality-control strain. The sensitivity of […] to ampicillin, ceftriaxone, cefotaxime, meropenem, tetracycline, moxifloxacin, and chloramphenicol was determined using an agar dilution method recommended by CLSI. The quality-control strain B. fragilis ATCC 25285 was determined using a micro broth dilution method recommended by CLSI.

AKK PROBIO = experiment: Drug sensitivity, agar dilution method (CLSI); assay type: cell-based, Akkermansia muciniphila; settings: for MIC: Akkermansia muciniphila, read-out: Test strain AKK PROBIO MIC, agar dilution method; for Test strain AKK PROBIO Judgment result: judged by CLSI S/I/R criterion of Table 6
Procedure: Referring to the Clinical and Laboratory Standards Institute (CLSI) method [CLSI. Performance Standards for Antimicrobial Susceptibility Testing; 26th ed. CLSI supplement M100S.
The sensitivity of AKK PROBIO to ampicillin, ceftriaxone, cefotaxime, meropenem, tetracycline, moxifloxacin, and chloramphenicol was determined using an agar dilution method recommended by CLSI. The quality-control strain B. fragilis ATCC 25285 was determined using a micro broth dilution method recommended by CLSI.

[2] = test system: gouty arthritis mouse model; experiment: Gouty arthritis mouse model (sodium urate); assay type: in vivo, BALB/c mice; settings: glucosamine sulfate 195 mg/kg. bw intragastric
Procedure: Mice were randomly divided into 5 groups: a normal group, a model group, a glucosamine sulfate (positive control) group, an Akk low-concentration experimental (Akk-L) group, and an Akk high-concentration experimental (Akk-H) group, with 10 mice in each group. The mice in the normal group and the mice in the model group were intragastrically administered with distilled water at a dosage of 0.1 mL/10 g. bw per day. The mice in the glucosamine sulfate group were intragastrically administered with glucosamine sulfate at a dosage of 195 mg/kg. bw. The mice in the Akk-L group and the mice in the Akk-H group were intragastrically administered with Akk experimental bacteria at a dosage of 10^8 CFU/kg. bw and 10^9 CFU/kg. bw, respectively, for 7 consecutive days. Then, all experimental mice were anesthetized with isoflurane, and then 50 μL of PBS solution was injected into the tibiotarsal joint (ankle joint) of the right paw of the mouse in the normal group. 50 mg of sodium urate was added to 1 mL of PBS buffer to prepare a suspension. 50 μL of suspension was injected into the tibiotarsal joints (ankle joint) of the right paws of the rest of the mice except the mice in the […] to induce gouty arthritis. After the mice woke up, they were intragastrically administrated with a corresponding sample for 7 d still at the dosage of the sample intragastrically administrated in the previous 7 days.
0.1 g of mouse ankle joint tissue was weighed and added into […] containing 0.9 mL of saline and mixing was performed. Subsequently, mixed tissue samples were centrifuged at a speed of 4000 rpm for 10 min to obtain liquid supernatant. Next, related indicators in the liquid supernatant of a tissue homogenate was determined using assay kits for MPO, SOD, GSH, and MDA.
A taken-out whole blood sample of the mouse was centrifuged at 4° C. at 4000 rpm for 10 min to obtain supernatant serum. Serum-related inflammatory indicators were determined using the ELISA kit for IL-6, IL-10, IL-1β, and TNF-α.

S. typhimurium TA98 = settings: TA98 −S9
Procedure: (§1) Bacterial strains used were Salmonella typhimurium TA97a (National Center for Type Culture Collection NTCC, 506391), S. typhimurium TA98 (NTCC, 506392), S. typhimurium TA100 (NTCC, 506395), S. typhimurium TA1535 (NTCC, 506396), and Escherichia coli WP2 uvrA (CHI Scientific, Co., Ltd., product number: 6-1705). To prepare a drug delivery formulation, distilled water was used as a carrier to prepare a suspension (100 mg/mL) for a test item. […] Therefore, bacteria in samples for the test item were removed by a mechanical means. In the process of mixing the formulation, any soluble components for the test item was dissolved in the carrier, and then, residual bacteria were removed by centrifugation (4° C.; 8000 rpm; 10 min). After centrifugation, liquid supernatant was removed and sterile filtration was performed with a 0.22 μm filter.
(§2) In the confirmatory mutation research, detection was performed at 15.81, 50, 158.1, 500, 1581, and 5000 μg/plate. The maximum concentration was recommended by current regulations and guidelines. […] The survival rate of test bacterial cells was checked through plate experiments in each test. If there is a dosage-related increase in the number of revertants, it is considered that the test item has mutagenicity, and/or a reproducible biology-related positive reaction targeting at least one dosage group occurs in at least one strain with or without metabolic activation.

[3] = test system: Salmonella typhimurium TA97a; settings: TA97a −S9
Procedure: as §1, §2

[4] = test system: AOM/DSS-induced colorectal carcinoma mice; experiment: AOM/DSS-induced colorectal carcinoma mice; assay type: in vivo, C57BL/6 mice
Procedure: 6-week-old SPF male C57BL/6 mice, purchased from the Chongqing Lepitt Biotechnology Co., Ltd. The mice were raised in a standardized laboratory with room temperature of 25° C.±2° C., relative humidity of 50%±5%, and 12 h of light/12 h of darkness. […] In experiments, mice were given free feeding and water. On the first day of experimental molding, the mice in the model group, the aspirin group, and the AKKP group were injected intraperitoneally with AOM at a dosage of 10 mg/kg, and were fed with 2.5% DSS aqueous solution at weeks 2, 5, and 8. The mice in the normal group and model group were intragastrically administrated with sterile saline; the mice in the aspirin group were intragastrically administrated with an aspirin solution at 67 mg/kg, and the mice in the AKKPL group and the AKKPH group were intragastrically administrated at dosages of 1×10^8 CFU/kg and 1×10^9 CFU/kg, respectively, for 10 consecutive weeks. In the experiments, diet, activity, vigor and hair conditions, and fecal properties of the mice in each group were observed. Each mouse was weighed per week and the body weights were recorded. After the experiments, blood was collected from eyeballs and the mice were sacrificed by removing their vertebrae. The mice were dissected to take out large intestine tissue, spleen tissue, liver tissue, and the kidney tissue for later testing.
After the mice were dissected, the large intestine tissue, the spleen tissue, the liver tissue, and the kidney tissue were taken out and weighed. An organ Index was calculated using a formula, while the colorectum length of the mouse was measured and the colorectal tumorigenesis number of the mouse was recorded. Organ index=organ weight (mg)/mouse body weight (g).
After being fixed in a tissue fixative for 24 h, the rectum of the mouse was transferred into 95% ethanol for dehydration, and then the dehydrated rectum was placed in xylene to replace alcohol in the tissue to make the rectum tissue transparent. Then, the treated rectum was embedded with paraffin. The embedded rectum was sectioned by a microtome, and then a tissue section was stained with H&E and fixed, obtaining a pathologic tissue section, with a thickness of 2 to 3 μm, of the rectum of the mouse, and the pathologic tissue section was observed under the upright microscope.
Whole blood was collected from the eyeballs, and centrifuged at 4000 r/min and 4° C. for 10 min to separate supernatant serum. According to the instruction of the ELISA kit, the levels of IL-1β, IL-6, IFN-γ, iNOS and NF-κB in the serum of the mouse were determined.
About 50 mg colon tissue was taken and cleaned with saline, and the cleaned colon tissue was placed in a homogenization tube containing 6 zirconia beads, and 500 μL TRIzol™ reagent was added to extract RNA in the tissue. The purity and concentration of RNA were determined using the micro-spectrophotometer. […] Then, after cDNA was generated by reverse transcription, a reaction system containing 1 μL cDNA was prepared. Other reagents include 10 μL qPCR SYBR Green Master Mix, […] sterile distilled water, 1 μL forward primer and 1 μL reverse primer. qRT-PCR amplification reaction conditions: 95° C., 10 s, 60° C., 30 s, 40 cycles; 95° C., 15 s, 60° C., 60 s, 95° C., 15 s. Taking Eef2 as an internal reference gene, the mRNA relative expression of each target gene was calculated according to formula 2^−ΔΔCt.

[5] = qRT-PCR, aspirin 67 mg/kg or AKKPH 1×10^9 CFU/kg, vs model group, P<0.05
[6] = qRT-PCR, vs model group, P<0.05

SMILES: CC1(C)S[C@@H]2[C@H](NC(=O)[C@H](N)c3ccccc3)C(=O)N2[C@H]1C(=O)O [Ampicillin, ampicillin]
MIC [1]: 64 µg/mL (≈ 183 µM)
MIC (AKK PROBIO): < 0.25 µg/mL
Test strain AKK PROBIO Judgment result (AKK PROBIO): Sensitive
Test strain AKK PROBIO Judgment result (AKK PROBIO; listed as ampicillin): sensitive

SMILES: N[C@H]1C(O)O[C@H](CO)[C@@H](O)[C@@H]1O.O=S(=O)(O)O (stereo partly shown) [Glucosamine sulfate, glucosamine sulfate, reference compound]
SOD in mouse ankle joint tissue ([2]; model group 1.07, normal 6.07): 2.50 ± 0.40 U/mg
MPO in mouse ankle joint tissue ([2]; model group 2.49, normal 0.38): 1.82 ± 0.17 U/g
GSH in mouse ankle joint tissue ([2]; model group 18.06, normal 47.05): 31.14 ± 1.66 mg/g
IL-1β in serum of mice ([2]; model group 24.97, normal 12.66): 21.15 ± 1.22 ng/mL
MDA in mouse ankle joint tissue ([2]; model group 26.69, normal 5.74): 20.31 ± 1.52 nmol/mg
IL-10 in serum of mice ([2]; model group 36.03, normal 27.20): 32.84 ± 1.94 ng/mL
IL-6 in serum of mice ([2]; model group 90.05, normal 52.97): 66.85 ± 4.90 ng/mL
TNF-α in serum of mice ([2]; model group 249.41, normal 117.58): 204.43 ± 15.32 ng/mL

SMILES: CN(C)c1ccc(N=NS(=O)(=O)[O-])cc1.[Na+] [Positive control 1, fenaminosulf]
Number of revertant mutants per plate (mean ± standard deviation) (S. typhimurium TA98): 1525.00
Number of revertant mutants per plate (mean ± standard deviation) [3]: 1169.4

SMILES: CN(C)[C@@H]1C(O)=C(C(N)=O)C(=O)[C@@]2(O)C(O)=C3C(=O)c4c(O)cccc4[C@@](C)(O)[C@H]3C[C@@H]12 [Tetracy cline, tetracycline]
MIC [1]: 0.5 µg/mL (≈ 1.13 µM)
MIC (AKK PROBIO): 2 µg/mL (≈ 4.5 µM)

Continued, in another order:

MIC [1]: 32 µg/mL (≈ 70.3 µM)
MIC (AKK PROBIO): 16 µg/mL (≈ 35.1 µM)
SMILES: CO/N=C(\C(=O)N[C@@H]1C(=O)N2C(C(=O)O)=C(COC(C)=O)CS[C@H]12)c1csc(N)n1 [Cefotaxime, cefotaxime]
Test strain AKK PROBIO Judgment result (AKK PROBIO): Sensitive
Test strain AKK PROBIO Judgment result (AKK PROBIO; listed as cefotaxime): sensitive

MIC [1]: 128 µg/mL (≈ 231 µM)
MIC (AKK PROBIO): 8 µg/mL (≈ 14.4 µM)
SMILES: CO/N=C(\C(=O)N[C@@H]1C(=O)N2C(C(=O)O)=C(CSc3nc(=O)c(=O)[nH]n3C)CS[C@H]12)c1csc(N)n1 [Ceftriaxone, ceftriaxone]
Test strain AKK PROBIO Judgment result (AKK PROBIO): Sensitive
Test strain AKK PROBIO Judgment result (AKK PROBIO; listed as ceftriaxone): sensitive

MIC [1]: 8 µg/mL (≈ 24.8 µM)
MIC (AKK PROBIO): 4 µg/mL (≈ 12.4 µM)
SMILES: O=C(N[C@H](CO)[C@H](O)c1ccc([N+](=O)[O-])cc1)C(Cl)Cl [Chloramphenicol, chloramphenicol]
Test strain AKK PROBIO Judgment result (AKK PROBIO): Sensitive
Test strain AKK PROBIO Judgment result (AKK PROBIO; listed as chloramphenicol): sensitive

MIC [1]: 0.25 µg/mL (≈ 0.652 µM)
MIC (AKK PROBIO): 0.125 µg/mL (≈ 0.326 µM)
SMILES: C[C@@H](O)[C@H]1C(=O)N2C(C(=O)O)=C(S[C@@H]3CN[C@H](C(=O)N(C)C)C3)[C@H](C)[C@H]12 [Meropenem, meropenem]
Test strain AKK PROBIO Judgment result (AKK PROBIO): Sensitive
Test strain AKK PROBIO Judgment result (AKK PROBIO; listed as meropenem): sensitive

kidney index / renal tissue ([4]; between the five groups, P>0.05): no significant difference
SMILES: CC(=O)Oc1ccccc1C(=O)O [aspirin, reference compound]
body weight loss ([4]; AOM/DSS mice, intragastric 10 weeks, aspirin 67 mg/kg, AKKP 1×10^8 and 1×10^9 CFU/kg): alleviate the body weight loss in the mice to a certain extent
content of IL-6 in serum ([4]; ELISA, vs model group): reduced
content of IFN-γ in serum ([4]; ELISA, vs model group, P<0.05): reduced
content of IL-1β in serum ([4]; ELISA, vs model group, P<0.05): lower than that in the model group
content of NF-κB in serum ([4]; ELISA, vs model group, P<0.05): reduced
content of iNOS in serum ([4]; ELISA, vs model group, P<0.05): reduced
colorectum weight/length (ratio) ([4]; aspirin 67 mg/kg intragastric 10 weeks, model group 4.34±0.35, normal 2.81±0.34): 3.17±0.50
pathological morphology of rectum tissue (H&E) ([4]; aspirin, AKKPL and AKKPH groups): no obvious erosion found in the rectal mucosa
mRNA relative expression of IκBβ in colon tissue [4, 5]: significantly reduced
mRNA relative expression of p50 in colon tissue [4, 5]: significantly reduced
mRNA relative expression of Bid in colon tissue [4, 6]: significantly increased
mRNA relative expression of Bim in colon tissue [4, 6]: significantly increased
mRNA relative expression of caspase-9 in colon tissue [4, 6]: significantly increased
mRNA relative expression of p52 in colon tissue [4, 6]: significantly reduced
mRNA relative expression of p65 in colon tissue [4, 6]: significantly reduced
colorectal tumorigenesis number ([4]; vs model group, P<0.05): significantly smaller
liver weight (liver index) ([4]; vs model group, P<0.05): reduced
spleen weight (spleen index) ([4]; vs model group, P<0.05): reduced
colorectum length ([4]; vs model group, P<0.05, aspirin 67 mg/kg, AKKP 1×10^8 and 1×10^9 CFU/kg, 10 weeks): relatively long
